Assay results reported in PubChem BioAssay AID1845209 (Molecular Pharmacology Branch, DTP, NCI, 2023).
Values joined by “and” are separate entries in the source; they are usually repeats but may differ in a detail not shown here. Identical values can stand only once.

System: NCI-H211 tumor spheroids, viability percent test/control
Test: Anticancer human tumor NCI-H211 cell line growth inhibition;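 note: spheroids exposed to agents for seven days before readout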
Conditions: spheroids with HUVEC and MSC; for viability, T/C: stronger effect = lower value; active = viability on the fitted dose curve at most 10% of control; inactive = the rest
Text: Multicellular complex tumor spheroid response to DNA repair inhibitors in combination with DNA-damaging drugs
This study explores the anticancer activities of DNA-damaging drugs and inhibitors of DNA damage repair, both as single agents and in combinations. Complex tumor spheroids comprised of malignant cells, endothelial cells and mesenchymal stem cells served as an in vitro model for human solid tumors. This model system incorporates physiologically relevant features and patient-derived or established malignant cell lines with clinically relevant genetic alterations from many tumor types. Twenty-six patient-derived or established malignant cell lines were evaluated representing sarcoma, melanoma, small cell lung cancer (SCLC), non-small cell lung cancer (NSCLC), as well as bladder, ovarian and pancreatic cancers. The concentration ranges selected for each drug and investigational agent were based upon clinically achievable concentrations if the clinical Cmax of the agent was known.
Compounds. The drugs and compounds olaparib (NSC753686), talazoparib (NSC767125), berzosertib (NSC777718), elimusertib (NSC800525), nedisertib (NSC802822), VX-984 (NSC792969), AZD-1390 (NSC803789), temozolomide (NSC362856), topotecan (NSC609699), trabectedin (NSC813783), staurosporine (NSC755774), and gemcitabine (NSC613327) were obtained from the National Cancer Institute (NCI) Developmental Therapeutics Program Chemical Repository. The FDA-approved anticancer drug set is available from the Developmental Therapeutics Program at https://dtp.cancer.gov/organization/dscb/obtaining/available_plates.htm. […] The stock solutions were prepared in dimethyl sulfoxide (DMSO, Sigma-Aldrich, St. Louis, MO, cat. D2650) at 400-fold the tested concentration and stored at -70 degrees C. Prior to their use, the stock solutions were diluted in fresh medium and the final DMSO concentration in the assay was 0.25% (v/v). All drugs and investigational agents were tested over a range starting from a high concentration at or near the clinical Cmax and decreasing in half-log increments. If the clinical Cmax for an agent had not been determined, the highest concentration tested was 10 microM.
Cell Lines. The patient-derived cancer cell (PDC) lines: 156681-154-R-J1-PDC, 283228-195-R-J1-PDC, 287954-098-R-J1-PDC, 292921-168-R-J2-PDC, 349418-098-R-PDC, 425362-245-T-J1-PDC, 556581-035-R-J1-PDC, and BL0293-F563-PDC were received from the NCI Patient-Derived Models Repository (PDMR, https://pdmr.cancer.gov). The established cell lines HS-SY-2 (RRID:CVCL_8719), MPNST, and SYO-1 (RRID:CVCL_7146) were obtained from the Sloan Kettering Institute. The alveolar soft parts sarcoma cell line ASPS-1 (RRID:CVCL_S738) was established at the NCI and grown from internal seed stocks. The following established cell lines were purchased from the American Type Culture Collection (ATCC, Manassas, VA): G-401 (ATCC, cat. CRL-1441, RRID:CVCL_0270), SW982 (ATCC, cat. HTB-93, RRID:CVCL_1734), VA-ES-BJ (ATCC, cat. CRL-2138, RRID:CVCL_1785), NCI-H719 (ATCC, cat. CRL-5837, RRID:CVCL_1582), NCI-H196 (ATCC, cat. CRL-5823, RRID:CVCL_1509), NCI-H841 (ATCC, cat. CRL-5845, RRID:CVCL_1595), NCI-H1618 (ATCC, cat. CRL-5879, RRID:CVCL_1480), NCI-H1876 (ATCC, cat. CRL-5902, RRID:CVCL_1503), DMS 114 (ATCC, cat. CRL-2066; RRID:CVCL_1174), NCI-H211 (ATCC, cat. CRL-5824; RRID:CVCL_1529), and SW 1271 (ATCC, cat. CRL-2177, RRID:CVCL_1716). The small cell lung cancer cell line COR-L88 was purchased from Sigma-Aldrich (cat. 92031917-1VL, RRID:CVCL_1141). The non-small cell lung cancer cell lines NCI-H226 (RRID:CVCL_1544) and NCI-H322M (RRID:CVCL_1557) were established at the NCI and grown from internal seed stocks. Pooled donor human umbilical vein endothelial cells (HUVEC, Lonza, cat. CC-2519) and human mesenchymal stem cells (hMSC, Lonza, cat. PT-2501) were purchased from Lonza (Walkersville, MD).
Cell Culture. All cells were maintained in an incubator at 37 degrees C and 5% CO2 with 95% humidity. […]

CC(C)n1c(=O)n(C)c2cnc3cc(F)c(-c4ccc(OCCCN5CCCCC5)nc4)cc3c21 + CC[C@@]1(O)C(=O)OCc2c1cc1n(c2=O)Cc2cc3c(CN(C)C)c(O)ccc3nc2-1
< 31.6 nM: IC50 (curve of first compound, second compound 0.003 µM) | IC50 (curve of first compound, second compound 0.00949 µM) | IC50 (curve of first compound, second compound 0.03 µM) | IC50 (curve of first compound, second compound 0.0949 µM) | IC50 (curve of first compound, second compound 0.3 µM)
active: viability, T/C (second compound 0.003 µM, first compound 10 µM) 2.91% | viability, T/C (second compound 0.00949 µM, first compound 0.0316 µM) 0.98% | viability, T/C (second compound 0.00949 µM, first compound 0.1 µM) 0.97% | viability, T/C (second compound 0.00949 µM, first compound 0.316 µM) 1.23% | viability, T/C (second compound 0.00949 µM, first compound 1 µM) 1.31% | viability, T/C (second compound 0.00949 µM, first compound 3.16 µM) 1.09% | viability, T/C (second compound 0.00949 µM, first compound 10 µM) 0.52% | viability, T/C (second compound 0.03 µM, first compound 0.0316 µM) 1.27% | viability, T/C (second compound 0.03 µM, first compound 0.1 µM) 0.81% | viability, T/C (second compound 0.03 µM, first compound 0.316 µM) 0.82% | viability, T/C (second compound 0.03 µM, first compound 1 µM) 0.85% | viability, T/C (second compound 0.03 µM, first compound 3.16 µM) 0.81% | viability, T/C (second compound 0.03 µM, first compound 10 µM) 0.5% | viability, T/C (second compound 0.0949 µM, first compound 0.0316 µM) 0.98% | viability, T/C (second compound 0.0949 µM, first compound 0.1 µM) 1.01% | viability, T/C (second compound 0.0949 µM, first compound 0.316 µM) 0.97% | viability, T/C (second compound 0.0949 µM, first compound 1 µM) 0.94% | viability, T/C (second compound 0.0949 µM, first compound 3.16 µM) 1% | viability, T/C (second compound 0.0949 µM, first compound 10 µM) 0.57% | viability, T/C (second compound 0.3 µM, first compound 0.0316 µM) 1.06% | viability, T/C (second compound 0.3 µM, first compound 0.1 µM) 0.95% | viability, T/C (second compound 0.3 µM, first compound 0.316 µM) 0.85% | viability, T/C (second compound 0.3 µM, first compound 1 µM) 1.2% | viability, T/C (second compound 0.3 µM, first compound 3.16 µM) 1.02% | viability, T/C (second compound 0.3 µM, first compound 10 µM) 0.73%
inactive: viability, T/C (second compound 0.003 µM, first compound 0.0316 µM) 19.9% | viability, T/C (second compound 0.003 µM, first compound 0.1 µM) 22% | viability, T/C (second compound 0.003 µM, first compound 0.316 µM) 20% | viability, T/C (second compound 0.003 µM, first compound 1 µM) 18.8% | viability, T/C (second compound 0.003 µM, first compound 3.16 µM) 10.9%

COc1cc(C)[nH]c(=O)c1CN1CCc2c(Cl)cc(C(OC)C3COC3)c(Cl)c2C1=O (configuration not stated)
> 10000 nM: IC50 (curve of compound)
inactive: viability, T/C (compound 0.0316 µM) 98.9% and 97.3% and 103% | viability, T/C (compound 0.1 µM) 92.9% and 105% and 99.4% | viability, T/C (compound 0.316 µM) 81.8% and 93.7% and 96.8% | viability, T/C (compound 1 µM) 92.6% and 78.5% and 88.5% | viability, T/C (compound 3.16 µM) 87.9% and 84.4% and 87.8% | viability, T/C (compound 10 µM) 83.7% and 89.1% and 85.7%
